In ChEMBL document CHEMBL3867477 (Bioorg Med Chem Lett, 2016):
Values after ≈ are worked out from the molar mass of the structure shown. Blank lines part the entries; values can stand above or below the molecule they belong to.

Key:
CHO = test: Selectivity index, ratio of Ki for human OX2 receptor expressed on CHO cell membrane to Ki for Ile408-Val variant human OX1 receptor expressed on CHO cell membrane; type: cell-based
[1] = Aqueous solubility of the compound at pH 7; type: physicochemical; conditions: aqueous medium
Orexin receptor type 2 [2] = target: T1, Orexin receptor type 2 (Homo sapiens, UniProt O43614); test: Displacement of (2S)-N-(2-pyrrol-1-ylphenyl)-1-[2-[1-(tritritiomethyl)benzimidazol-2-yl]sulfanylacetyl]pyrrolidine-2-carboxamide from human OX2 receptor expressed on CHO cell membrane measured after 3 hrs by TopCount method; type: cell membranes
T1 sequence (O43614 whole entry): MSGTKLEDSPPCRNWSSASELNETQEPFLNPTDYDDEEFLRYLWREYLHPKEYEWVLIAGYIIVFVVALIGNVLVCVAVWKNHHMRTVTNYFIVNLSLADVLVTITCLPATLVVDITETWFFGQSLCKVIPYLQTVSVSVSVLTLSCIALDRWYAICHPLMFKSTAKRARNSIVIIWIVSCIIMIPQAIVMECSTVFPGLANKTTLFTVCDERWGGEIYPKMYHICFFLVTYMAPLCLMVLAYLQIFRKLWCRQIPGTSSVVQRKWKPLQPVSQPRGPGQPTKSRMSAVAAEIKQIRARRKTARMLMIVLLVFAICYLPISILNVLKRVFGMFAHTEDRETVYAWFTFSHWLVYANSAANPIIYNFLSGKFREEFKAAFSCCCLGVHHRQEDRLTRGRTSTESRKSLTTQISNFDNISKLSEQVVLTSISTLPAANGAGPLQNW

[3] = Aqueous solubility of the compound at pH 2; type: physicochemical; conditions: aqueous medium
[4] = target: Sodium channel protein type 5 subunit alpha (Homo sapiens, UniProt Q14524); test: Inhibition of Nav1.5 (unknown origin)
[5] = target: Voltage-dependent L-type calcium channel subunit alpha-1C (Homo sapiens, UniProt Q13936); test: Inhibition of Cav1.2 (unknown origin)
[6] = Displacement of (2S)-N-(2-phenylphenyl)-1-[2-[1-(tritritiomethyl)benzimidazol-2-yl]sulfanylacetyl]pyrrolidine-2-carboxamide from human OX1 receptor Ile408-Val mutant expressed on CHO cell membrane measured after 3 hrs by TopCount method; type: cell membranes
[7] = target: T2, Orexin/Hypocretin receptor type 1 (Homo sapiens) (UniProt O43613); test: Potency index, ratio of PE8 Ki to compound Ki for human OX1 receptor
T2 sequence (whole entry): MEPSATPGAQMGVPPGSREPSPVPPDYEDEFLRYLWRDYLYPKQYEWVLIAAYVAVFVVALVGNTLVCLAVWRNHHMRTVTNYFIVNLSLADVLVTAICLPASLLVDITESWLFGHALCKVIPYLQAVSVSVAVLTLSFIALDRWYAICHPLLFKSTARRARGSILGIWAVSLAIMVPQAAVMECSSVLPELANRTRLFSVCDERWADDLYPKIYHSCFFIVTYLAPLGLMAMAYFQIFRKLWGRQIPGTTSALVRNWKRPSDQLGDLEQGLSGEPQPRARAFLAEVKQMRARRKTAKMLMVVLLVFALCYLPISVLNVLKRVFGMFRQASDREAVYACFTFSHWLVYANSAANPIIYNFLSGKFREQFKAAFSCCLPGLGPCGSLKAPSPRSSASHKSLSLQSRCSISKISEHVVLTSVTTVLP

[8] = Antagonist activity at human OX1 receptor Ile408-Val mutant expressed on CHO cell membrane assessed as inhibition of Ala-6,12 orexin-A-induced calcium increase preincubated for 5 mins prior to Ala-6,12 orexin-A addition measured at 1 sec intervals for 1 min by Fluo-4AM dye-based FLIPR assay
[9] = Protein binding in human plasma; type: ADME, cell-free; conditions: read-out: PPB (converted)
Orexin receptor type 2 [10] = target: T1, Orexin receptor type 2; type: functional, cell-based, CHO
Description: Antagonist activity at human OX2 receptor expressed on CHO cell membrane assessed as inhibition of Ala-6,12 orexin-A-induced calcium increase preincubated for 5 mins prior to Ala-6,12 orexin-A addition measured at 1 sec intervals for 1 min by Fluo-4AM dye-based FLIPR assay

[11] = Protein binding in dog plasma; type: ADME, cell-free, Canis lupus familiaris; conditions: read-out: PPB (converted)
Orexin receptor type 2 [12] = target: T3, Orexin receptor type 2 (Rattus norvegicus, UniProt P56719); type: functional
T3 sequence (P56719 whole entry): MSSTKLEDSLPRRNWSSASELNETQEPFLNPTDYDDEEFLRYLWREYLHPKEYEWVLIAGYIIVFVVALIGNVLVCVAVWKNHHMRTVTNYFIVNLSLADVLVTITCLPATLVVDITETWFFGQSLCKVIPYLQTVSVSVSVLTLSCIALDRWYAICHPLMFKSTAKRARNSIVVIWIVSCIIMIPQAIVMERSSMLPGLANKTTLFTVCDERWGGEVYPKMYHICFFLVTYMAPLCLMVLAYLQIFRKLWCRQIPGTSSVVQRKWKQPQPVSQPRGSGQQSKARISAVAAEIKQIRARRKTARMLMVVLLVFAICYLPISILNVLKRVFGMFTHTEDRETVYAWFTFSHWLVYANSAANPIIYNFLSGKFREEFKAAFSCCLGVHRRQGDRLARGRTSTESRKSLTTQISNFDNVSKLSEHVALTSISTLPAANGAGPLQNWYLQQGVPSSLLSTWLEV
Description: Antagonist activity at rat OX2 receptor assessed as inhibition of Ala-6,12 orexin-A-induced calcium increase preincubated for 5 mins prior to Ala-6,12 orexin-A addition measured at 1 sec intervals for 1 min by Fluo-4AM dye-based FLIPR assay

Rattus norvegicus = species: Rattus norvegicus; test: Selectivity index, ratio of IC50 for rat OX2 receptor to IC50 for rat OX1 receptor
[13] = target: T4, Orexin/Hypocretin receptor type 1 (Rattus norvegicus, UniProt P56718); test: Antagonist activity at rat OX1 receptor assessed as inhibition of Ala-6,12 orexin-A-induced calcium increase preincubated for 5 mins prior to Ala-6,12 orexin-A addition measured at 1 sec intervals for 1 min by Fluo-4AM dye-based FLIPR assay; type: functional
T4 sequence (P56718 whole entry): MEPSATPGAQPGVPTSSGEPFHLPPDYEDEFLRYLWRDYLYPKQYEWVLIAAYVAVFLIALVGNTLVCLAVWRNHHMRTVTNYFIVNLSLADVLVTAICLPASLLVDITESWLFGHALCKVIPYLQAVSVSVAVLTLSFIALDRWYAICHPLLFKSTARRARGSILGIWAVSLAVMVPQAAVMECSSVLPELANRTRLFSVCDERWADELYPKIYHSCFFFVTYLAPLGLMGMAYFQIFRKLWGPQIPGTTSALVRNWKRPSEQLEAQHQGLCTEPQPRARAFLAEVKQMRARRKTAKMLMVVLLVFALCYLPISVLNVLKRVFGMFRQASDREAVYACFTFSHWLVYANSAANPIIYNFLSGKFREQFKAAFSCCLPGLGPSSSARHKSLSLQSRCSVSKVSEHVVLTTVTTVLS

[14] = Drug metabolism in rat liver microsomes assessed as oxidation of banzamide; type: ADME
[15] = Oral bioavailability in rat at 10 mg/kg; type: ADME, organism-based; conditions: in vivo
[16] = target: T2, Orexin/Hypocretin receptor type 1 (Homo sapiens); test: Binding affinity to OX1 receptor (unknown origin) assessed as association rate constant
[17] = Clearance in rhesus monkey at 2 mg/kg, iv or 10 mg/kg, po; type: ADME, organism-based, Macaca mulatta; conditions: in vivo
[18] = Intrinsic clearance in human liver microsomes; type: ADME; conditions: read-out: CLH
[19] = Intrinsic clearance in rhesus monkey liver microsomes; type: ADME, Macaca mulatta; conditions: read-out: CLH
[20] = Half life in dog at 0.5 mg/kg, iv or 10 mg/kg, po; type: ADME, organism-based, Canis lupus familiaris; conditions: in vivo
[21] = Half life in rhesus monkey at 2 mg/kg, iv or 10 mg/kg, po; type: ADME, organism-based, Macaca mulatta; conditions: in vivo
[22] = target: T2, Orexin/Hypocretin receptor type 1 (Homo sapiens); test: Binding affinity to OX1 receptor (unknown origin) assessed as dissociation rate constant
[23] = Oral bioavailability in dog at 3 mg/kg; type: ADME, organism-based, Canis lupus familiaris; conditions: in vivo
[24] = Half life in rat at 2 mg/kg, iv or 10 mg/kg, po; type: ADME, organism-based; conditions: in vivo
[25] = Protein binding in rat plasma; type: ADME, cell-free; conditions: read-out: PPB (converted)
[26] = Clearance in dog at 0.5 mg/kg, iv or 10 mg/kg, po; type: ADME, organism-based, Canis lupus familiaris; conditions: in vivo
[27] = Protein binding in rhesus monkey plasma; type: ADME, cell-free, Macaca mulatta; conditions: read-out: PPB (converted)
[28] = Clearance in rat at 2 mg/kg, iv; type: ADME, organism-based; conditions: in vivo
[29] = Intrinsic clearance in dog liver microsomes; type: ADME, Canis lupus familiaris; conditions: read-out: CLH
[30] = Intrinsic clearance in rat liver microsomes; type: ADME; conditions: read-out: CLH
[31] = Apparent permeability of the compound; type: ADME; conditions: not told
[32] = target: T5, Orexin/Hypocretin receptor type 1 (Homo sapiens, UniProt O43613); test: Binding affinity to OX1 receptor (unknown origin)
T5 sequence (O43613 whole entry): T2 sequence (whole entry)

[33] = Selectivity index, ratio of IC50 for human OX1 receptor to IC50 for rat OX1 receptor
[34] = Oral bioavailability in rhesus monkey at 10 mg/kg; type: ADME, organism-based, Macaca mulatta; conditions: in vivo

Chain of Sodium channel protein type 5 subunit alpha (Q14524 whole entry): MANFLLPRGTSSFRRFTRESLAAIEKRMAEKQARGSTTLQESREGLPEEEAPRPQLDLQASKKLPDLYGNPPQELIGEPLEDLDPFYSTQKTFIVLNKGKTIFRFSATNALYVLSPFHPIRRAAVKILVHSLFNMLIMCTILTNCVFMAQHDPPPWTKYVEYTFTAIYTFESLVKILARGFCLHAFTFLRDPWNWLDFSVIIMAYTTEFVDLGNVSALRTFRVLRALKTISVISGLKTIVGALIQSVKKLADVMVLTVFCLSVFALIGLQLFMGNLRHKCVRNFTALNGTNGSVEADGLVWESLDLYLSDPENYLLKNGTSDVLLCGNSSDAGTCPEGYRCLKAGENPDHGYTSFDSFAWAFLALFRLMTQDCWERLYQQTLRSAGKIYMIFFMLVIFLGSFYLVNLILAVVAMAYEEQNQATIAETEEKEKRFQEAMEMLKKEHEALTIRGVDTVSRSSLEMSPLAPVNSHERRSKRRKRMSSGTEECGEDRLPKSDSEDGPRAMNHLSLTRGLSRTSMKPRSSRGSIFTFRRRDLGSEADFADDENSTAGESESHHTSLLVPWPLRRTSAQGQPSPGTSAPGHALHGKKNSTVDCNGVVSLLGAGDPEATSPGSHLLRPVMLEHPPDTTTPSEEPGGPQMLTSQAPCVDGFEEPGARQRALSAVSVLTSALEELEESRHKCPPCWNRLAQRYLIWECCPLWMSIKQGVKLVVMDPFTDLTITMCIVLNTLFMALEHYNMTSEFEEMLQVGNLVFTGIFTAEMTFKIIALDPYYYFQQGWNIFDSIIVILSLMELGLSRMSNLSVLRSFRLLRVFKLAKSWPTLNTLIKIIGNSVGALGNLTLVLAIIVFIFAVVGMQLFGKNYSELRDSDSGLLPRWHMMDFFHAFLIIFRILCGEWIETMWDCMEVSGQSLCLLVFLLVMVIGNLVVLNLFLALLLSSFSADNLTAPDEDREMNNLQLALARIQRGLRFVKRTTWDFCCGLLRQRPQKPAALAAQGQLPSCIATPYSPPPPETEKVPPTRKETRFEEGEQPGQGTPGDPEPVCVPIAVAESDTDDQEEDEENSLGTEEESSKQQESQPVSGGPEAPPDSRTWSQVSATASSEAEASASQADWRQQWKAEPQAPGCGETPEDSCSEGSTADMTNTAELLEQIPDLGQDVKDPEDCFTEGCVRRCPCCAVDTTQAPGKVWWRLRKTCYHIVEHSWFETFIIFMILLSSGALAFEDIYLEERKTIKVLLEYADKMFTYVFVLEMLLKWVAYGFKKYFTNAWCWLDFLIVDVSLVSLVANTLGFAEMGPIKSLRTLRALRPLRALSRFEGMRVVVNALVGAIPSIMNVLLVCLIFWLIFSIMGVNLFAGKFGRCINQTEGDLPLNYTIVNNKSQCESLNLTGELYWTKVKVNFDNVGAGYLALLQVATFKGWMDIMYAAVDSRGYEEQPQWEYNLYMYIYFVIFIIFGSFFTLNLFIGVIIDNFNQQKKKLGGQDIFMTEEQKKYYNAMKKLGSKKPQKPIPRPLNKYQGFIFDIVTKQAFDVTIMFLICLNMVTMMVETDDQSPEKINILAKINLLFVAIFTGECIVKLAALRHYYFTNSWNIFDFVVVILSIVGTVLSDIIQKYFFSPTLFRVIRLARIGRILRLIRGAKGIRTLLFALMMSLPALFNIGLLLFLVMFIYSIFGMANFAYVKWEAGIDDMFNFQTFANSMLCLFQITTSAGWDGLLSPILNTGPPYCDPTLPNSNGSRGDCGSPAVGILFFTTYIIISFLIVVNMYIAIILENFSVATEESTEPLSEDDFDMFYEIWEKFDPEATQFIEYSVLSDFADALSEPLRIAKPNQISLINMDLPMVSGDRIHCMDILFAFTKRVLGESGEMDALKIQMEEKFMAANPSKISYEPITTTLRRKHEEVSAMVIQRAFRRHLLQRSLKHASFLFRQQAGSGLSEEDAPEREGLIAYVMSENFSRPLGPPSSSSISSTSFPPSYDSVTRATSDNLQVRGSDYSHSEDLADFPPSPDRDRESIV
Chain of Voltage-dependent L-type calcium channel subunit alpha-1C (Q13936 whole entry): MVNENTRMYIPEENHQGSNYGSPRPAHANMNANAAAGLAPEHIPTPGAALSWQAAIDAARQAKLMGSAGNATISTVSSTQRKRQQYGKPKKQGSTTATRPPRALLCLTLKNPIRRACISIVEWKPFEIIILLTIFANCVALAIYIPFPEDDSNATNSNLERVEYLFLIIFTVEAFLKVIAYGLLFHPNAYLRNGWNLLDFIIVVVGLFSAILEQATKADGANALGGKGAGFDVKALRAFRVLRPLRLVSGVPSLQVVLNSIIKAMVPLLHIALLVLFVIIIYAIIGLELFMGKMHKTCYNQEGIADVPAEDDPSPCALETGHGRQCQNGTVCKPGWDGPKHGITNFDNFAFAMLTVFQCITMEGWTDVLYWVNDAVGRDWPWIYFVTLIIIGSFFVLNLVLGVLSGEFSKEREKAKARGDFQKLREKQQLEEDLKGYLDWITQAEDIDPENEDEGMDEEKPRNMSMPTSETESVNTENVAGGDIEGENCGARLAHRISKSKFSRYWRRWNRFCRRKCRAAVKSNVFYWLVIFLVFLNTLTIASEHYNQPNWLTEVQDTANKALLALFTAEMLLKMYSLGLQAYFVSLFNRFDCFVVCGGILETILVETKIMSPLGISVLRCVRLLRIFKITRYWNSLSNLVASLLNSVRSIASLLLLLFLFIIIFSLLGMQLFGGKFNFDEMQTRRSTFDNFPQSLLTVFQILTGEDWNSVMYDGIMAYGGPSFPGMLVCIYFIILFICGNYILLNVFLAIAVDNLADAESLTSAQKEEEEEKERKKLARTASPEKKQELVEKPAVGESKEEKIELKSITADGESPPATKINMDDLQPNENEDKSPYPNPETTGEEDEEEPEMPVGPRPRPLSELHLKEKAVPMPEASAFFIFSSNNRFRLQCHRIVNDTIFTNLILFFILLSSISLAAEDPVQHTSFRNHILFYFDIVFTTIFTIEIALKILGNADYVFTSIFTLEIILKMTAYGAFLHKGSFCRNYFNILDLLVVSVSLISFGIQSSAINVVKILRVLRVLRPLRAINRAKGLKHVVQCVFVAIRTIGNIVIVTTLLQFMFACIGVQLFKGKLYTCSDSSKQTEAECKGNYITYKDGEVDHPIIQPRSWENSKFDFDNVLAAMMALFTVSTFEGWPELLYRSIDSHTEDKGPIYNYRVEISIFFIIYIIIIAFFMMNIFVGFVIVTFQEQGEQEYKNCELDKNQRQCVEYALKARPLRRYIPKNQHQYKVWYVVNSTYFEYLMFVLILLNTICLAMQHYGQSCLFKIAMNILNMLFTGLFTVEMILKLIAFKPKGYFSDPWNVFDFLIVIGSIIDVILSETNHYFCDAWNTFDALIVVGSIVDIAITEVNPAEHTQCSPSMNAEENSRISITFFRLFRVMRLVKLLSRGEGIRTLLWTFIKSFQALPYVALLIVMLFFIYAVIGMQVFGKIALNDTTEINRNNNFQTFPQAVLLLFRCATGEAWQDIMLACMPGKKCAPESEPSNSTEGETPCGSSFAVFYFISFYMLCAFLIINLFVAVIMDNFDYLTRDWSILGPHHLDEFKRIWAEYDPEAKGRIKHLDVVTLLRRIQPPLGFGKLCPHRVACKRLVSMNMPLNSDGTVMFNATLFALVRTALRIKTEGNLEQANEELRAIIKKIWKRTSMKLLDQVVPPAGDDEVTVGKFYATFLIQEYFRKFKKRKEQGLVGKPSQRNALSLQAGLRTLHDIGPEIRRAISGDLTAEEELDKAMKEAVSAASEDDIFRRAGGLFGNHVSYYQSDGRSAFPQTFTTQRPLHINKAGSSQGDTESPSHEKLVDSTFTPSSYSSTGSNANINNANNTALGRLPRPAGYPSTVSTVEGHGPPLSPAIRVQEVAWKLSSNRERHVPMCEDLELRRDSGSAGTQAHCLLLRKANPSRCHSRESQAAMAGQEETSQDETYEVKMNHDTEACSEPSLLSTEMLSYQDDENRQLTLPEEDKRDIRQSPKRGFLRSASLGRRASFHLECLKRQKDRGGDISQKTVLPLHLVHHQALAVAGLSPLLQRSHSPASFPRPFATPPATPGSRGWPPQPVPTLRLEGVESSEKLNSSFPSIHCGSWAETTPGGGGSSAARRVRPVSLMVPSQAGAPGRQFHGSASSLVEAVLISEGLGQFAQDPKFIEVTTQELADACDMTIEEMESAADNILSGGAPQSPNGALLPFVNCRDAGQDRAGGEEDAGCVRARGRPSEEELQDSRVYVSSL

solubility [1]: > 150 µM
Ki (Orexin receptor type 2 [2]): 1560 nM
solubility [3]: > 150 µM
SMILES: O=C(c1ccnc2[nH]ccc12)N1CCC(F)(F)[C@@H](Oc2ccc3ccccc3n2)C1
Ratio Ki (CHO): 626
inhibition (INH) [4]: Active
inhibition (INH) [5]: Active
Ki [6]: 2.5 nM

Ratio Ki [7]: 2
Ki (Orexin receptor type 2 [2]): 271 nM
SMILES: O=C(c1ccccc1-n1cccn1)N1CCC(F)(F)[C@@H](Oc2ccc3ccccc3n2)C1
Ratio Ki (CHO): 564
Ki [6]: 0.48 nM

The remaining lines, values behind:

SMILES: O=C(c1nccc2[nH]ccc12)N1CCC(F)(F)[C@@H](Oc2ccc3ccccc3n2)C1
Ratio Ki (CHO): 325
solubility [1]: > 150 µM
Ki (Orexin receptor type 2 [2]): 521 nM
solubility [3]: > 150 µM
inhibition (INH) [4]: Active
inhibition (INH) [5]: Active
Ki [6]: 1.6 nM

SMILES: O=C(c1ccccc1-n1nccn1)N1CCC(F)(F)[C@@H](Oc2ccc3ccccc3n2)C1
Ratio Ki (CHO): 400 to 401
IC50 [8]: 89 nM
solubility [1]: < 26 µM
fraction unbound [9]: < 0.01
IC50 (Orexin receptor type 2 [10]): 4180 nM
fraction unbound [11]: < 0.01
IC50 (Orexin receptor type 2 [12]): 1310 to 4180 nM
Ratio IC50 (Rattus norvegicus): 119
IC50 [13]: 11 nM
solubility [3]: < 26 µM
INH [4]: 6.7 µM
INH [5]: 3.8 µM
Ki [6]: 1.3 nM

SMILES: O=C(c1nccc2[nH]cnc12)N1CCC(F)(F)[C@@H](Oc2ccc3ccccc3n2)C1
Drug metabolism [14]: Metabolite_Notdetected
bioavailability [15]: 22%
Ratio Ki (CHO): 411
K [16]: 4.43 ×10⁷ /M/s
IC50 [8]: 58 nM
clearance [17]: 25 mL/min/kg
CLint scaled [18]: 55 mL/min/kg
CLint scaled [19]: 189 mL/min/kg
half-life [20]: 1 h
solubility [1]: 182 µM (≈ 74.5 µg/mL)
fraction unbound [9]: 0.14
half-life [21]: 2 h
K [22]: 0.21 s⁻¹
IC50 (Orexin receptor type 2 [10]): > 10000 nM
bioavailability [23]: 63%
fraction unbound [11]: 0.2
half-life [24]: 3.2 h
fraction unbound [25]: 0.17
clearance [26]: 12 mL/min/kg
fraction unbound [27]: 0.16
IC50 (Orexin receptor type 2 [12]): > 10000 nM
Ki (Orexin receptor type 2 [2]): 2140 nM
clearance [28]: 45 mL/min/kg
Ratio IC50 (Rattus norvegicus): > 625
CLint scaled [29]: < 75 mL/min/kg
CLint scaled [30]: 267 mL/min/kg
IC50 [13]: 16 nM
Papp [31]: 33 ×10⁻⁶ cm/s
Kd [32]: 4.74 nM
Ratio IC50 [33]: 3 to 4
solubility [3]: 192 µM (≈ 78.6 µg/mL)
bioavailability [34]: 16%
Ki [6]: 5.2 nM
